# Values joined by “and” are separate entries in the source; they are usually repeats but may differ in a detail not shown here. Identical values can stand only once. Like-named read-outs stand apart in the source and are kept apart here.
# Experiments:
# physchem = assay: physchem
# Experimental: • Test concentration: 100 μM (1% of DMSO) • Test systems: PBS (pH 7.4) • Incubation condition: shaken (1000 rpm) for 1 h at room temperature • Sample size: Duplicates (n=2) • Bioanalytical method: LC-MS/MS
# [1] = tested on: C57BL/6 Diet Induced Obese (DIO) mice; assay: Oral (P.O.) administration study in DIO mice: in vivo activity, body weights; set-up: species or system mouse; details: for change in vivo at 2 mg/kg: Mus musculus, po, difference of group mean, read-out: Body weight, %-Diff
# Text: The purpose of this study was to assess test articles in the Diet Induced Obese (DIO) mouse.
# Male C57BL/6 Diet Induced Obese (DIO) mice were received from Taconic. Animals were acclimated to housing conditions for at least 1 week prior to vehicle acclimation dosing. Animals were acclimated to oral gavage dosing with vehicle once daily for Days 11 through 14 of the predose phase.
# At initiation of dosing, animals were 21 to 22 weeks old, and their body weights ranged from 29.8 to 40.1 g.
# Dose formulations were administered by oral gavage once daily for 10 days at a dose volume of 2 mL/kg. Doses were based on the most recently recorded scheduled body weight.
# Body weights were recorded daily on Days 11 through 14 of the predose phase. Body weights were collected for all animals daily during the dosing phase prior to dosing.
# Descriptive statistics (n, mean, standard error of the mean, standard deviation) were completed. Additionally, one-way analysis of variance followed by Dunnett's post-hoc test were performed on body weight (cumulative body weight change), glucose (glucose percent change), and food consumption (cumulative food consumption). Area under the curve (for body weight, cumulative body weight change, daily body weight change, and food consumption) was computed for treatment groups. An appropriate comparison test, such as one-way analysis of variance and Dunnett's, was performed on the group means for the area under the curve computations. Any additional statistical analysis and interpretation of the results were the responsibility of the sponsor.
# [2] = pH 7.4, aqueous buffer, kinetic from dmso stock, Solubility (μM) Mean, Table 6-B; PBS (pH 7.4), test concentration 100 μM (1% of DMSO), shaken (1000 rpm) 1 h at room temperature, n = 2
# [3] = pH 7.4, aqueous buffer, kinetic from dmso stock, Solubility (μM), Table 6-D; PBS (pH 7.4)
# [4] = 2 mg/kg oral gavage once daily, dosing phase Day 1
# [5] = 2 mg/kg oral gavage once daily, dosing phase Day 1, N 5
# [6] = 2 mg/kg oral gavage once daily, dosing phase Day 2
# [7] = 2 mg/kg oral gavage once daily, dosing phase Day 2, N 5
# [8] = 2 mg/kg oral gavage once daily, dosing phase Day 3
# [9] = 2 mg/kg oral gavage once daily, dosing phase Day 3, N 5
# [10] = 2 mg/kg oral gavage once daily, dosing phase Day 4
# [11] = 2 mg/kg oral gavage once daily, dosing phase Day 4, N 5
# [12] = 2 mg/kg oral gavage once daily, dosing phase Day 5
# [13] = 2 mg/kg oral gavage once daily, dosing phase Day 5, N 5
# [14] = 2 mg/kg oral gavage once daily, dosing phase Day 6
# [15] = 2 mg/kg oral gavage once daily, dosing phase Day 6, N 5
# [16] = Day 7, DSNG phase, 2 mg/kg, male, N=5
# [17] = Day 8, DSNG phase, 2 mg/kg, male, N=5
# [18] = Day 9, DSNG phase, 2 mg/kg, male, N=5
# [19] = Day 10, DSNG phase, 2 mg/kg, male, N=5
# [20] = Day 11, DSNG phase, 2 mg/kg, male, N=5
# [21] = 168 h, Day 7, DSNG phase, 2 mg/kg, male
# [22] = 192 h, Day 8, DSNG phase, 2 mg/kg, male
# [23] = 216 h, Day 9, DSNG phase, 2 mg/kg, male
# [24] = 240 h, Day 10, DSNG phase, 2 mg/kg, male
# [25] = 264 h, Day 11, DSNG phase, 2 mg/kg, male
# [26] = PBS (pH 7.4), pH 7.4, aqueous buffer, kinetic from dmso stock, Solubility (μM) Mean, Table 6-B, test concentration 100 μM (1% of DMSO), shaken (1000 rpm) 1 h at room temperature, n = 2
# [27] = PBS (pH 7.4), pH 7.4, aqueous buffer, kinetic from dmso stock, Solubility (μM), Table 6-D
smiles,measurement,setting,value
CC1=C(O)C(=O)C=C2C1=CC=C1[C@@]2(C)CC[C@@]2(C)[C@@H]3C[C@](C)(C(=O)O)CC[C@]3(C)CC[C@]12C [ERX1000],solubility,physchem; [2],3.89 µM
same,solubility,physchem; [3],3.89 µM
same,Body weight %-Diff,[1]; [4],0%
same,"Body weight, Mean",[1]; [5],34.2 g
same,Body weight %-Diff,[1]; [6],−1%
same,"Body weight, Mean",[1]; [7],34.0 g
same,Body weight %-Diff,[1]; [8],−2%
same,"Body weight, Mean",[1]; [9],33.1 g
same,Body weight %-Diff,[1]; [10],−3%
same,"Body weight, Mean",[1]; [11],32.5 g
same,Body weight %-Diff,[1]; [12],−5%
same,"Body weight, Mean",[1]; [13],32.1 g
same,Body weight %-Diff,[1]; [14],−6%
same,"Body weight, Mean",[1]; [15],31.4 g
same,"Body weight, Mean",[1]; [16],30.6 g
same,"Body weight, Mean",[1]; [17],30.4 g
same,"Body weight, Mean",[1]; [18],30.3 g
same,"Body weight, Mean",[1]; [19],30.0 g
same,"Body weight, Mean",[1]; [20],29.1 g
same,change in vivo at 2 mg/kg,[1]; [21],-9%
same,change in vivo at 2 mg/kg,[1]; [22],-10%
same,change in vivo at 2 mg/kg,[1]; [23],-9%
same,change in vivo at 2 mg/kg,[1]; [24],-10%
same,change in vivo at 2 mg/kg,[1]; [25],-15%
CC1=C(O)C(=O)C=C2C1=CC=C1[C@@]2(C)CC[C@@]2(C)[C@@H]3C[C@](C)(C(N)=O)CC[C@]3(C)CC[C@]12C [ERX1006],solubility,physchem; [2],1.15 µM
same,solubility,physchem; [3],1.15 µM
same,Body weight %-Diff,[1]; [4],−1%
same,"Body weight, Mean",[1]; [5],34.1 g
same,Body weight %-Diff,[1]; [6],−2%
same,"Body weight, Mean",[1]; [7],33.9 g
same,Body weight %-Diff,[1]; [8],−1%
same,"Body weight, Mean",[1]; [9],33.4 g
same,Body weight %-Diff,[1]; [10],−2%
same,"Body weight, Mean",[1]; [11],32.8 g
same,Body weight %-Diff,[1]; [12],−4%
same,"Body weight, Mean",[1]; [13],32.6 g
same,Body weight %-Diff,[1]; [14],−3%
same,"Body weight, Mean",[1]; [15],32.5 g
same,"Body weight, Mean",[1]; [16],32.0 g
same,"Body weight, Mean",[1]; [17],31.7 g
same,"Body weight, Mean",[1]; [18],31.4 g
same,"Body weight, Mean",[1]; [19],31.2 g
same,"Body weight, Mean",[1]; [20],30.9 g
same,change in vivo at 2 mg/kg,[1]; [21],-4%
same,change in vivo at 2 mg/kg,[1]; [22],-6%
same,change in vivo at 2 mg/kg,[1]; [23],-5%
same,change in vivo at 2 mg/kg,[1]; [24],-7%
same,change in vivo at 2 mg/kg,[1]; [25],-9%
same,"Individual Body Weight, PRED 11","[1]; individual male DIO mouse of the 2 mg/kg group, pre-dose phase day 11 (baseline)",37.6 g and 34.5 g and 32.2 g and 35.2 g and 36.7 g
same,"Individual Body Weight, PRED 12","[1]; individual male DIO mouse of the 2 mg/kg group, pre-dose phase day 12 (baseline)",38.0 g and 35.2 g and 32.7 g and 34.8 g and 36.8 g
same,"Individual Body Weight, PRED 13","[1]; individual male DIO mouse of the 2 mg/kg group, pre-dose phase day 13 (baseline)",37.4 g and 35.4 g and 32.5 g and 34.1 g and 36.3 g
same,"Individual Body Weight, PRED 14","[1]; individual male DIO mouse of the 2 mg/kg group, pre-dose phase day 14 (baseline)",38.5 g and 35.4 g and 32.7 g and 34.3 g and 36.9 g
same,"Individual Body Weight, DSNG 1","[1]; individual male DIO mouse, 2 mg/kg, dosing phase day 1, 2 mg/kg",35.7 g and 35.0 g and 32.7 g and 32.4 g and 34.9 g
same,"Individual Body Weight, DSNG 2","[1]; individual male DIO mouse, 2 mg/kg, dosing phase day 2, 2 mg/kg",35.0 g and 35.6 g and 31.8 g (2×) and 35.2 g
CC1=C(O)C(=O)C=C2C1=CC=C1[C@@]2(C)CC[C@@]2(C)[C@@H]3C[C@](C)(C(=O)N(C)C)CC[C@]3(C)CC[C@]12C [ERX1008],solubility,physchem; [2],0.08 µM
same,solubility,physchem; [3],0.0841 µM
same,cumulative body weight change,"[1]; 2 mg/kg oral gavage once daily for 10 days, compared with controls",statistically significant decreases
CC1=C(O)C(=O)C=C2C1=CC=C1[C@@]2(C)CC[C@@]2(C)[C@@H]3C[C@](C)(CO)CC[C@]3(C)CC[C@]12C [ERX1010],solubility,physchem; [2],0.64 µM
same,solubility,physchem; [3],0.644 µM
CC1=C(O)C(=O)C=C2C1=CC=C1[C@@]2(C)CC[C@@]2(C)[C@@H]3C[C@](C)(C(=O)N4CC(O)C4)CC[C@]3(C)CC[C@]12C [ERX1020],solubility,physchem; [2],0.54 µM
same,solubility,physchem; [3],0.54 µM
CC1=C(O)C(=O)C=C2C1=CC=C1[C@@]2(C)CC[C@@]2(C)[C@@H]3C[C@](C)(C(=O)NC(CO)CO)CC[C@]3(C)CC[C@]12C [ERX1029],solubility,physchem; [2],1.61 µM
same,solubility,physchem; [3],1.6 µM
CC(=O)Oc1cc2c(c(C)c1OC(C)=O)C(SC(C)C)C=C1[C@@]2(C)CC[C@@]2(C)[C@@H]3C[C@](C)(C(N)=O)CC[C@]3(C)CC[C@]12C (stereo partly drawn) [ERX1066],solubility at 1 h,physchem; [26],0.63 µM
same,solubility at 1 h,physchem; [27],0.627 µM
COC(=O)[C@]1(C)CC[C@]2(C)CC[C@]3(C)C4=CC=C5C(=CC(=O)C(O)=C5C)[C@]4(C)CC[C@@]3(C)[C@@H]2C1 [ERX1074],solubility at 1 h,physchem; [2],4.19 µM
same,solubility at 1 h,physchem; [3],4.19 µM
CC(=O)Oc1cc2c(c(C)c1OC(C)=O)C(SC(C)=O)C=C1[C@@]2(C)CC[C@@]2(C)[C@@H]3C[C@](C)(C(=O)O)CC[C@]3(C)CC[C@]12C (stereo partly drawn) [ERX1076],solubility at 1 h,physchem; [26],6.44 µM
same,solubility at 1 h,physchem; [27],6.43 µM

# Source: patent US10662218B2, “Analogs of celastrol” (ERX Pharmaceuticals, Inc., priority 2015, dated 2020)
